Experimental data published in ChEMBL document CHEMBL1154196, “Synthesis and evaluation of (S,S)-N,N'-bis-[3-(2,2',6,6'-tetramethylbenzhydryloxy)-2-hydroxy-propyl]-ethylenediamine (S2824) analogs with anti-tuberculosis activity” (2009).
≈ marks a conversion by molar mass, not a printed value.

Legend:
[1] = test system: Mycobacterium tuberculosis; assay: Antitubercular activity against isoniazid, rifampin, ethambutol, streptomycin-resistant Mycobacterium tuberculosis by radiometric BACTEC460 method; format: functional
[2] = test system: Mycobacterium tuberculosis; assay: Antitubercular activity against isoniazid, rifampin-resistant Mycobacterium tuberculosis by radiometric BACTEC460 method; format: functional

SMILES	MIC [1]	MIC [2]
Cc1ccc(C(OC[C@H](O)CN2CCCN(C[C@@H](O)COC(c3ccc(C)cc3)c3ccc(C)cc3)CC2)c2ccc(C)cc2)cc1	1.56 µg/mL (≈ 2.45 µM)	1.56 µg/mL (≈ 2.45 µM)
Cc1ccc(C(OC[C@H](O)CN2CCN(C[C@@H](O)COC(c3ccc(C)cc3)c3ccc(C)cc3)CC2)c2ccc(C)cc2)cc1	6.25 µg/mL (≈ 10 µM)	6.25 µg/mL (≈ 10 µM)
Cc1ccc(C(OC[C@@H](O)CN2CCCN(C[C@H](O)COC(c3ccc(C)cc3)c3ccc(C)cc3)CC2)c2ccc(C)cc2)cc1	0.78 µg/mL (≈ 1.22 µM)	1.56 µg/mL (≈ 2.45 µM)
CC[C@@H](CO)NCCN[C@@H](CC)CO [ETHAMBUTOL]	> 12.5 µg/mL	3.13 µg/mL (≈ 15.3 µM)
